From patent US9580726B2, “Tomato plants comprising transgenic event Bs2-X5” (priority 2013, dated 2017)
Counter-ions that a name gives are not always drawn. Like-named read-outs stand apart in the source and are kept apart here.

What was measured:
[1] = system: bacterial spot disease on tomato; conditions: cited from earlier work
[2] = system: Xanthomonas bacterial isolates; type: cell-based, Xanthomonas perforans; conditions: 200 μg/ml, 3 days
Experimental: The bacterial isolates were also tested for sensitivity to the bactericides, streptomycin and copper using established procedures. All strains were tested for growth on media with either streptomycin sulfate (200 μg/ml) or copper sulfate (pentahydrate) 200 μg/ml (0.8 mM)) after 3 days, [38].

[3] = Collier, zone III, Florida 47, 20 strains isolated (r19)
[4] = Collier, zone III, Grape, 18 strains isolated (r22)
[5] = Collier, zone III, Grape, 20 strains isolated (r21)
[6] = Collier, zone III, Large Fruit, 19 strains isolated (r23)
[7] = Collier, zone III, Roma, 20 strains isolated (r20)
[8] = Decatur, GA, zone V, Large Fruit, 19 strains isolated (r39)
[9] = Decatur, GA, zone V, Large Fruit, 20 strains isolated (r41)
[10] = Decatur, GA, zone V, Large Fruit, 20 strains isolated (r43)
[11] = Gadsden, zone V, Large Fruit, 19 strains isolated (r37)
[12] = Gadsden, zone V, Large Fruit, 20 strains isolated (r35)
[13] = Manatee, zone IV, Large Fruit, 20 strains isolated (r25)
[14] = Manatee, zone IV, Large Fruit, 20 strains isolated (r27)
[15] = Manatee, zone IV, Large Fruit, 20 strains isolated (r29)
[16] = Manatee, zone IV, Large Fruit, 20 strains isolated (r31)
[17] = Manatee, zone IV, Large Fruit, 20 strains isolated (r33)
[18] = Miami Dade, zone I, Large Fruit, 13 strains isolated (r13)
[19] = Miami Dade, zone I, Large Fruit, 15 strains isolated (r9)
[20] = Miami Dade, zone I, Large Fruit, 20 strains isolated (r11)
[21] = Miami Dade, zone I, Plum, 20 strains isolated (r15)
[22] = Palm Beach, zone II, Heirloom varieties, 14 strains isolated (r17)
[23] = Totals, 377 strains isolated (r45)

[Cu+2].[OH-].[OH-] [Copper hydroxide]
Significant difference between treatment and untreated control: Foliar Rating ([1]; 2008, TN, Ref [3]): No
Significant difference between treatment and untreated control: Marketable Yield ([1]; 2008, TN, Ref [3]): No
Significant difference between treatment and untreated control: AUDPC ([1]; 2009, OH, Ref [4]): No
Significant difference between treatment and untreated control: Marketable Yield ([1]; 2009, OH, Ref [4]): No
Significant difference between treatment and untreated control: Foliar Rating ([1]; 2009, OH, Ref [4], foliar symptoms lower on copper treated plots, fruit symptoms not): Yes^f
Significant difference between treatment and untreated control: AUDPC ([1]; 2010, FL, Ref [6]): Yes^h
Significant difference between treatment and untreated control: Foliar Rating ([1]; 2010, FL, Ref [6]): No^h
Significant difference between treatment and untreated control: Marketable Yield ([1]; 2010, FL, Ref [6]): No

O.O.O.O.O.O=S(=O)([O-])[O-].[Cu+2] [Cu, copper sulfate (pentahydrate)]
Bactericide Resistance: number of resistant strains [2, 3]: 20
Bactericide Resistance: number of resistant strains [2, 4]: 14
Bactericide Resistance: number of resistant strains [2, 5]: 20
Bactericide Resistance: number of resistant strains [2, 6]: 19
Bactericide Resistance: number of resistant strains [2, 7]: 20
Bactericide Resistance: number of resistant strains [2, 8]: 19
Bactericide Resistance: number of resistant strains [2, 9]: 20
Bactericide Resistance: number of resistant strains [2, 10]: 20
Bactericide Resistance: number of resistant strains [2, 11]: 19
Bactericide Resistance: number of resistant strains [2, 12]: 20
Bactericide Resistance: number of resistant strains [2, 13]: 20
Bactericide Resistance: number of resistant strains [2, 14]: 20
Bactericide Resistance: number of resistant strains [2, 15]: 20
Bactericide Resistance: number of resistant strains [2, 16]: 20
Bactericide Resistance: number of resistant strains [2, 17]: 20
Bactericide Resistance: number of resistant strains [2, 18]: 13
Bactericide Resistance: number of resistant strains [2, 19]: 15
Bactericide Resistance: number of resistant strains [2, 20]: 20
Bactericide Resistance: number of resistant strains [2, 21]: 20
Bactericide Resistance: number of resistant strains [2, 22]: 14
Bactericide Resistance: number of resistant strains [2, 23]: 377
Bactericide Resistance: number of resistant strains ([2]; Totals, 377 strains isolated (r45), listed as copper): all current field strains were found to be resistant

[H]/N=C(/N)N[C@H]1[C@H](O)[C@@H](O)[C@H](O[C@@H]2O[C@@H](C)[C@](O)(C=O)[C@H]2O[C@@H]2O[C@@H](CO)[C@H](O)[C@@H](O)[C@@H]2NC)[C@@H](N/C(N)=N\[H])[C@@H]1O [St, streptomycin sulfate]
Bactericide Resistance: number of resistant strains [2, 3]: 0
Bactericide Resistance: number of resistant strains [2, 4]: 0
Bactericide Resistance: number of resistant strains [2, 5]: 0
Bactericide Resistance: number of resistant strains [2, 6]: 0
Bactericide Resistance: number of resistant strains [2, 7]: 0
Bactericide Resistance: number of resistant strains [2, 8]: 0
Bactericide Resistance: number of resistant strains [2, 9]: 0
Bactericide Resistance: number of resistant strains [2, 10]: 0
Bactericide Resistance: number of resistant strains [2, 11]: 0
Bactericide Resistance: number of resistant strains [2, 12]: 0
Bactericide Resistance: number of resistant strains [2, 13]: 0
Bactericide Resistance: number of resistant strains [2, 14]: 0
Bactericide Resistance: number of resistant strains [2, 15]: 0
Bactericide Resistance: number of resistant strains [2, 16]: 1
Bactericide Resistance: number of resistant strains [2, 17]: 0
Bactericide Resistance: number of resistant strains [2, 18]: 0
Bactericide Resistance: number of resistant strains [2, 19]: 0
Bactericide Resistance: number of resistant strains [2, 20]: 19
Bactericide Resistance: number of resistant strains [2, 21]: 0
Bactericide Resistance: number of resistant strains [2, 22]: 0
Bactericide Resistance: number of resistant strains [2, 23]: 20
Bactericide Resistance: number of resistant strains ([2]; Totals, 377 strains isolated (r45), listed as streptomycin): streptomycin resistant strains were found in two of our survey collection areas
